Reference: PubChem BioAssay AID493191 (Broad Institute, 2011)

Tested on: MALME3 melanoma viability, CellTiter-Glo luminescence, 24 h
Test: growth inhibition of MALME3 cells – cell-based, CellTiter-Glo, cherry-picked, orthogonal assay for MITF inhibitor project, dose response (AID 493191)

Compound | AC50 [µM]
Cc1ccc(NC(=O)c2cc(N3C(=O)C=CC3=O)ccc2N2CCOCC2)cc1 | 10.1
CN(C)CC1CC/C(=C\c2ccc(O)cc2)C1=O (stereo unspecified) | 25.9
O=C(CNC(=O)c1ccccc1)N/N=C/c1ccc([N+](=O)[O-])s1 | 26.2
CN1CCN(c2ccccc2NC(=O)c2ccc([N+](=O)[O-])o2)CC1 | 10
COc1cc(CNC2CCCC2)cc(Cl)c1OCc1ccccc1Cl | 17.6
Cc1cccc(NC(=O)CNC(=O)Cn2ncc(Cl)c(Cl)c2=O)c1C | 14.1
OCCNc1c2ccccc2nc2c(F)c(F)c(F)c(F)c12 | 15.1
CC(=O)c1cccc(NC(=O)/C=C/c2ccc([N+](=O)[O-])s2)c1 | 16.8
CCN(CC)CCNC(=O)c1ccc(NC(=O)c2cn(-c3ccccc3)nc2-c2cccs2)cc1 | 17.8
O=C(Cn1ncc(Cl)c(Cl)c1=O)c1ccc(Cl)cc1 | 26.5
CCOC(=O)c1cc2sccc2n1CC(=O)N1c2ccccc2CC1C (stereo unspecified) | 25
C=CCn1c(C)cc(C2=NNC(=NCC)SC2)c1C | 17.6
O=C1/C(=C/c2ccccc2[N+](=O)[O-])COc2ccccc21 | 25.3
Cc1ccc2nc(N(CCCN(C)C)C(=O)c3ccc4c(c3)CCCC4)sc2c1 | 21.6
O=C(N/N=C/c1ccc([N+](=O)[O-])s1)C(O)c1ccccc1 (stereo unspecified) | 22.7
CCOc1ccc(-n2c(C)cc(C(=O)CCl)c2C)cc1 | 19.9
O=C1c2cc(F)ccc2-n2c1nc1ccccc1c2=O | 4.39
CCNC1=C(Cl)C(=O)c2ccccc2C1=O | 15.3
COc1ccc(-c2nn(-c3ccccc3)cc2/C=N/N=C(N)N)cc1OC | 21.9

Compound | AC50 [µM]
CCN1CCN(c2ccc(S(=O)(=O)N3CCCCC3)cc2NC(=O)/C=C/c2ccc([N+](=O)[O-])cc2)CC1 | 23.9
CC1CCC(C(C)C)C(OC(=O)C[n+]2cc(-c3ccc(Cl)cc3)n3c2CCCCC3)C1 (stereo unspecified) | 18
Cc1ccc(C(C)C)c(OCc2nn(CC(=O)c3ccc(OC(F)F)cc3)c3[n+]2CCCCC3)c1 | 24.2
O=C1/C(=N\S(=O)(=O)c2cccs2)C([n+]2ccccc2)=C([O-])c2ccccc21 | 3.81
Cc1ccc(C(C)C)c(OCc2nn(CC(=O)c3ccc(Cl)cc3)c3[n+]2CCCCC3)c1 | 18.4
CC1(C)Cc2ccccc2C2=NNC(=O)C2=N1 | 7
CCCCC[n+]1ccn(C2=C([O-])c3ccccc3C(=O)/C2=N\S(=O)(=O)c2ccccc2)c1 | 14.2
Cc1ccc(-n2cc(CNCCCn3ccnc3C)c(-c3ccc(F)cc3)n2)cc1 | 15.8
CC(C)=NOc1cc(NC(=O)CCl)cc([N+](=O)[O-])c1 | 5.64
Cc1ccc(C)c(C(=O)Cn2ncc(Cl)c(Cl)c2=O)c1 | 16
Cc1cc(Br)ccc1NC(=O)CNC(=O)Cn1ncc(Cl)c(Cl)c1=O | 5.54
Cc1c(NC(=O)c2ccc([N+](=O)[O-])o2)cccc1-c1nc2ncccc2o1 | 15.4
COc1ccc(C[C@H]2CN3C(=NC[C@@H]3C(C)C)N2CCNC(=O)c2ccc(C)c(Br)c2)cc1 | 27.1
CCc1ccc(NC2=CC(=O)C(=O)c3ccccc32)cc1 | 6.91
N#CCc1ccc(NC(=O)/C=C/c2ccc([N+](=O)[O-])o2)cc1 | 10.4
O=c1c2ccccc2nc(/C=C/c2ccc([N+](=O)[O-])o2)n1-c1ccc(O)cc1 | 14.5
O=C(Cn1ncc(Cl)c(Cl)c1=O)NC1CCCCC1 | 24.8
COc1ccc(CNCCC(c2ccc(F)cc2)c2ccc(OC)cc2)cc1 (stereo unspecified) | 22
CN(C)CCCN(C(=O)CCc1ccccc1)c1nc2ccc(Br)cc2s1 | 19.2

Compound | AC50 [µM]
CCc1ccccc1NC(=O)CN(C)C(=O)Cn1ncc(Cl)c(Cl)c1=O | 11.8
Cc1ccc(C(=O)N/N=C/c2ccc([N+](=O)[O-])s2)cc1 | 22.6
Cc1cc(Sc2ncnc(N)c2[N+](=O)[O-])ncn1 | 34
CN(C(=O)/C=C/c1ccc([N+](=O)[O-])s1)c1ccccc1 | 34.4
CCN(CC)CCNC(=O)c1c(C)n(-c2ccccc2)c2cc(Br)c(OC)cc12 | 18.9
COc1ccc(N(Cc2cc(=O)[nH]c3ccccc23)C(=O)CCl)cc1 | 15.8
CC1CCC(C(C)C)C(OC(=O)Cn2c(-c3ccc(Br)cc3)[n+](C)c3ccccc32)C1 (stereo unspecified) | 10.1
CC(C)C(CCNC1CCN(C)CC1)c1ccc(Cl)cc1 (stereo unspecified) | 24.3
CCn1c(=O)c([N+](=O)[O-])c(Cl)c2ccccc21 | 27.9
Cn1c(SCC(=O)N/N=C/c2ccc([N+](=O)[O-])s2)nnc1-c1ccccc1 | 14.7
COC(=O)CCS(=O)(=O)c1nc(-c2ccccc2)cc(C(F)(F)F)n1 | 14.9
Cc1cc(NC(=O)c2ccc([N+](=O)[O-])o2)ccc1NC(=O)c1ccco1 | 12.5
O=C(Nc1ccc(N2CCN(C(=O)c3ccc(Cl)cc3)CC2)cc1)c1ccc([N+](=O)[O-])o1 | 16.7
CCOC(=O)c1ccc(NC2=CC(=O)C(=O)c3ccccc32)cc1 | 5.16
O=C1C=C(N(CCO)Cc2ccccc2)c2ccccc2C1=O | 16
Oc1cc(NCCN2CCOCC2)cc2cccnc12 | 24.6
Cc1ccc(NC(=O)CCl)cc1S(=O)(=O)N1CCCCCC1 | 18.1
O=[N+]([O-])c1cccc2c(N3CCCC3)ccnc12 | 4.82
